# Experimental data reported in article PMC7402526, “An in vitro quantitative systems pharmacology approach for deconvolving mechanisms of drug-induced, multilineage cytopenias” (PLoS Computational Biology, 2020).
# How the values were obtained:
# [1] = tested on: monocytes (monocyte-lin); test: MLTA, Mono: concentration-response and QSP model fit; assay type: cell-based, human; conditions: Homo sapiens, Monocyte, 144 h
# Outline: (§1)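 Freeze-thawed primary human bone marrow CD34+ cells were cultured 6 days in SFEM II with a cytokine cocktail, drug added on day 0. Subsets were counted by 17-parameter flow cytometry with TruCount beads and normalized to vehicle wells. An Emax QSP model (Emax 0–2, L1 regularization) was fitted to these counts.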
# [2] = tested on: human bone marrow-derived CD34+ cells differentiated into multiple hematopoietic lineages; test: MLTA, overall effects across hematopoietic lineages; assay type: cell-based; conditions: QSP model fit; EmaxT > 1.0 = cell-killing
# Outline: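 Thawed primary human bone marrow CD34+ cells grown in SFEM II with a multi-lineage cytokine cocktail, drug added day 0, 6 days at 37°C, 5% CO2. Subsets counted by 17-parameter flow cytometry with TruCount beads, normalized to six vehicle wells per donor (2–7 donors); Emax model fitted per cell type.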
# [3] = tested on: monocyte progenitors (monocyte prog); test: MLTA, MonoP: concentration-response and QSP model fit; assay type: cell-based, human
# Outline: as §1
# [4] = tested on: late erythroid cells (Eryth II); test: MLTA, ErythII: concentration-response and QSP model fit; assay type: cell-based, human; conditions: Homo sapiens, 144 h
# Outline: (§2)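 Drug was added at time 0 to thawed human bone marrow CD34+ cells in SFEM II plus a cytokine cocktail. After 6 days at 37°C, subsets were counted by surface-marker flow with TruCount beads. Vehicle-normalized, donor-pooled data then fed an Emax model separating anti-proliferative from cell-killing effects.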
# [5] = tested on: total dead cells (totalDeadCells); test: MLTA, total dead cells concentration-response; assay type: cell-based; conditions: Homo sapiens, 144 h, 6 days, normalized to vehicle control, read-out: total_dead normalized cell count
# Outline: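 Freeze-thawed primary human bone marrow CD34+ cells in SFEM II with cytokine cocktail, drug added day 0, 6 days at 37°C, 5% CO2. Live/dead counts by 17-parameter flow cytometry with DAPI exclusion, bead-normalized, volume-corrected to cells/mL. Normalized per donor to mean of six vehicle wells; 2–7 donors pooled.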
# [6] = tested on: early erythroid cells (Eryth I); test: MLTA, ErythI: concentration-response and QSP model fit; assay type: cell-based, human
# Outline: as §1
# [7] = tested on: neutrophils (neutrophil-lin); test: MLTA, Neut: concentration-response and QSP model fit; assay type: cell-based, human; conditions: Homo sapiens, Neutrophil, 144 h
# Outline: as §2
# [8] = tested on: hematopoietic stem cells (HSCs); test: Multi-lineage toxicity assay (MLTA), HSCs: concentration-response and QSP model fit; assay type: cell-based, human
# Outline: as §2
# [9] = QSP model fit of 6-day MLTA data
# [10] = cell-killing component, max(0, EmaxT-1)
compound,measurement,setting,value
CC(=O)O[C@@]12CO[C@@H]1C[C@H](O)[C@@]1(C)C(=O)[C@H](O)C3=C(C)[C@@H](OC(=O)[C@H](O)[C@@H](NC(=O)OC(C)(C)C)c4ccccc4)C[C@@](O)([C@@H](OC(=O)c4ccccc4)[C@H]21)C3(C)C [docetaxel],EC50,[1]; [9],9.03 nM
same,activity at 0.0002 µM,"[1]; dose 0.2 nM, 6 days, normalized to vehicle control, read-out: Mon normalized cell count",103%
same,activity at 0.001 µM,"[1]; dose 1 nM, 6 days, normalized to vehicle control, read-out: Mon normalized cell count",106%
same,activity at 0.005 µM,"[1]; dose 5 nM, 6 days, normalized to vehicle control, read-out: Mon normalized cell count",2.6%
same,activity at 0.025 µM,"[1]; dose 25 nM, 6 days, normalized to vehicle control, read-out: Mon normalized cell count",1.23%
same,activity at 0.1 µM,"[1]; dose 100 nM, 6 days, normalized to vehicle control, read-out: Mon normalized cell count",1.06%
same,activity at 0.5 µM,"[1]; dose 500 nM, 6 days, normalized to vehicle control, read-out: Mon normalized cell count",2.03%
same,activity at 2.5 µM,"[1]; dose 2500 nM, 6 days, normalized to vehicle control, read-out: Mon normalized cell count",1.39%
same,Emax,"[1]; parameter from QSP model fitting, read-out: Emax_drug_Mono",19.8%
same,EmaxT effects across cell types (overall statement),[2],> 1.0
same,EC50,"[3]; Homo sapiens, Monocyte, 144 h, QSP model fit of 6-day MLTA data, read-out: EC50MonoP",7.88 nM
same,activity at 0.0002 µM,"[3]; Homo sapiens, Monocyte, 144 h, dose 0.2 nM, 6 days, normalized to vehicle control, read-out: MonoPs normalized cell count",110%
same,activity at 0.001 µM,"[3]; Homo sapiens, Monocyte, 144 h, dose 1 nM, 6 days, normalized to vehicle control, read-out: MonoPs normalized cell count",107%
same,activity at 0.005 µM,"[3]; Homo sapiens, Monocyte, 144 h, dose 5 nM, 6 days, normalized to vehicle control, read-out: MonoPs normalized cell count",7.72%
same,activity at 0.025 µM,"[3]; Homo sapiens, Monocyte, 144 h, dose 25 nM, 6 days, normalized to vehicle control, read-out: MonoPs normalized cell count",0.204%
same,activity at 0.1 µM,"[3]; Homo sapiens, Monocyte, 144 h, dose 100 nM, 6 days, normalized to vehicle control, read-out: MonoPs normalized cell count",0.162%
same,activity at 0.5 µM,"[3]; Homo sapiens, Monocyte, 144 h, dose 500 nM, 6 days, normalized to vehicle control, read-out: MonoPs normalized cell count",0.302%
same,activity at 2.5 µM,"[3]; Homo sapiens, Monocyte, 144 h, dose 2500 nM, 6 days, normalized to vehicle control, read-out: MonoPs normalized cell count",0.319%
same,Emax,"[3]; Homo sapiens, Monocyte, 144 h, parameter from QSP model fitting, read-out: Emax_drug_MonoP",146%
same,"EmaxCK,MonoP",[3]; [10],0.459 day⁻¹
same,EC50,"[4]; QSP model fit of 6-day MLTA data, read-out: EC50ErythII",6.3 nM
same,activity at 0.0002 µM,"[4]; dose 0.2 nM, 6 days, normalized to vehicle control, read-out: ErythII normalized cell count",91.6%
same,activity at 0.001 µM,"[4]; dose 1 nM, 6 days, normalized to vehicle control, read-out: ErythII normalized cell count",105%
same,activity at 0.005 µM,"[4]; dose 5 nM, 6 days, normalized to vehicle control, read-out: ErythII normalized cell count",0.449%
same,activity at 0.025 µM,"[4]; dose 25 nM, 6 days, normalized to vehicle control, read-out: ErythII normalized cell count",0.0341%
same,activity at 0.1 µM,"[4]; dose 100 nM, 6 days, normalized to vehicle control, read-out: ErythII normalized cell count",0.0344%
same,activity at 0.5 µM,"[4]; dose 500 nM, 6 days, normalized to vehicle control, read-out: ErythII normalized cell count",0.0336%
same,activity at 2.5 µM,"[4]; dose 2500 nM, 6 days, normalized to vehicle control, read-out: ErythII normalized cell count",0.0256%
same,Emax,"[4]; parameter from QSP model fitting, read-out: Emax_drug_ErythroidII",1.59%
same,activity at 0.0002 µM,[5]; dose 0.2 nM,104%
same,activity at 0.001 µM,[5]; dose 1 nM,107%
same,activity at 0.005 µM,[5]; dose 5 nM,113%
same,activity at 0.025 µM,[5]; dose 25 nM,45.7%
same,activity at 0.1 µM,[5]; dose 100 nM,46.1%
same,activity at 0.5 µM,[5]; dose 500 nM,41.6%
same,activity at 2.5 µM,[5]; dose 2500 nM,48.4%
same,EC50,"[6]; Homo sapiens, 144 h, QSP model fit of 6-day MLTA data, read-out: EC50ErythI",8.14 nM
same,activity at 0.0002 µM,"[6]; Homo sapiens, 144 h, dose 0.2 nM, 6 days, normalized to vehicle control, read-out: ErythI normalized cell count",112%
same,activity at 0.001 µM,"[6]; Homo sapiens, 144 h, dose 1 nM, 6 days, normalized to vehicle control, read-out: ErythI normalized cell count",110%
same,activity at 0.005 µM,"[6]; Homo sapiens, 144 h, dose 5 nM, 6 days, normalized to vehicle control, read-out: ErythI normalized cell count",5.32%
same,activity at 0.025 µM,"[6]; Homo sapiens, 144 h, dose 25 nM, 6 days, normalized to vehicle control, read-out: ErythI normalized cell count",0.559%
same,activity at 0.1 µM,"[6]; Homo sapiens, 144 h, dose 100 nM, 6 days, normalized to vehicle control, read-out: ErythI normalized cell count",0.401%
same,activity at 0.5 µM,"[6]; Homo sapiens, 144 h, dose 500 nM, 6 days, normalized to vehicle control, read-out: ErythI normalized cell count",0.687%
same,activity at 2.5 µM,"[6]; Homo sapiens, 144 h, dose 2500 nM, 6 days, normalized to vehicle control, read-out: ErythI normalized cell count",0.409%
same,Emax,"[6]; Homo sapiens, 144 h, parameter from QSP model fitting, read-out: Emax_drug_ErythroidI",173%
same,"EmaxCK,ErythI",[6]; [10],0.726 day⁻¹
same,EC50,[7]; [9],13.7 nM
same,activity at 0.0002 µM,"[7]; dose 0.2 nM, 6 days, normalized to vehicle control, read-out: Neut normalized cell count",90.8%
same,activity at 0.001 µM,"[7]; dose 1 nM, 6 days, normalized to vehicle control, read-out: Neut normalized cell count",99.6%
same,activity at 0.005 µM,"[7]; dose 5 nM, 6 days, normalized to vehicle control, read-out: Neut normalized cell count",0.23%
same,activity at 0.025 µM,"[7]; dose 25 nM, 6 days, normalized to vehicle control, read-out: Neut normalized cell count",0.177%
same,activity at 0.1 µM,"[7]; dose 100 nM, 6 days, normalized to vehicle control, read-out: Neut normalized cell count",0.139%
same,activity at 0.5 µM,"[7]; dose 500 nM, 6 days, normalized to vehicle control, read-out: Neut normalized cell count",0.0727%
same,activity at 2.5 µM,"[7]; dose 2500 nM, 6 days, normalized to vehicle control, read-out: Neut normalized cell count",0%
same,Emax,"[7]; parameter from QSP model fitting, read-out: Emax_drug_Neut",23.2%
same,EC50,"[8]; Homo sapiens, Hematopoietic stem cell, 144 h, QSP model fit of 6-day MLTA data",33.7 nM
same,activity at 0.0002 µM,"[8]; Homo sapiens, Hematopoietic stem cell, 144 h, dose 0.2 nM, 6 days, normalized to vehicle control, read-out: HSCs normalized cell count",97.9%
same,activity at 0.001 µM,"[8]; Homo sapiens, Hematopoietic stem cell, 144 h, dose 1 nM, 6 days, normalized to vehicle control, read-out: HSCs normalized cell count",104%
same,activity at 0.005 µM,"[8]; Homo sapiens, Hematopoietic stem cell, 144 h, dose 5 nM, 6 days, normalized to vehicle control, read-out: HSCs normalized cell count",64.6%
same,activity at 0.025 µM,"[8]; Homo sapiens, Hematopoietic stem cell, 144 h, dose 25 nM, 6 days, normalized to vehicle control, read-out: HSCs normalized cell count",4%
same,activity at 0.1 µM,"[8]; Homo sapiens, Hematopoietic stem cell, 144 h, dose 100 nM, 6 days, normalized to vehicle control, read-out: HSCs normalized cell count",0.534%
same,activity at 0.5 µM,"[8]; Homo sapiens, Hematopoietic stem cell, 144 h, dose 500 nM, 6 days, normalized to vehicle control, read-out: HSCs normalized cell count",2.32%
same,activity at 2.5 µM,"[8]; Homo sapiens, Hematopoietic stem cell, 144 h, dose 2500 nM, 6 days, normalized to vehicle control, read-out: HSCs normalized cell count",0.559%
same,Emax,"[8]; Homo sapiens, Hematopoietic stem cell, 144 h, parameter from QSP model fitting, read-out: Emax_drug_HSC",130%
same,"EmaxCK,HSC",[8]; [10],0.3 day⁻¹
